# Patent US20100203110A1, “Therapeutics for Cancer Using 3-Bromopyruvate and Other Selective Inhibitors of ATP Production” (The Johns Hopkins University, priority 2006, published 2010)
# Columns and labels:
# [1] = test system: mitochondrial hexokinase of the VX2 tumor; assay: Hexokinase activity assay coupled to glucose-6-phosphate dehydrogenase; format: biochemical, rabbit; details: VX2 tumor mitochondria, cell free
# Method: (§1) The freshly isolated liver or VX2 tumor tissues (15-20 g wet weight) was rinsed in 3 volumes of H-medium (210 mM D-mannitol, 70 mM sucrose, 2 mM Hepes, and 0.05% bovine albumin, pH 7.4) at 4° C. and minced with a razor blade as finely as possible. A 30% (V/V) suspension was made using ice-cold H-medium in a Potter-Elvehjem glass homogenizer (55 ml capacity), and homogenization was achieved by applying 4 complete up and down strokes through the suspension with a rotating (˜400 rpm), serrated, teflon pestle attached to a motor. To remove cell debris and nuclei, the resultant homogenate was diluted to twice the initial volume and centrifuged at 630×g for 8 minutes at 4° C. in a Sorvall RC-2B centrifuge using a GSA rotor. The supernatant was removed and then centrifuged at 6,800 g for 15 min under the same conditions. The resultant supernatant was saved and referred to here as the cytosolic faction. The pellet was resuspended in the initial volume of H-medium and centrifuged twice at 9,800×g for 15 min at 4° C. The washed pellet represents the mitochondrial fraction.
# The assay coupled the glucose-6-phosphate formed in the hexokinase reaction to the glucose-6-phosphate dehydrogenase reaction. Here, NADP+, oxidizes glucose-6-phosphate to a g-lactone while becoming reduced to NADPH, thus allowing the formation of the latter to be monitored spectrophotometrically at 340 nm. […]
# [2] = test system: mitochondrial respiration of VX2 tumor mitochondria; assay: Mitochondrial respiration (oxygen consumption, Clark electrode); format: biochemical, rabbit; details: 1.2 mM; basal (succinate) and ADP stimulated rate
# Method: as §1, with “The pellet was resuspended in the initial volume of H-medium and centrifuged twice at 9,800×g for 15 min at 4° C. The washed pellet represents the mitochondrial fraction.” left out
# Oxygen consumption rates were measured polarographically using a Clark oxygen electrode inserted into a 2.5 ml chamber equipped with a magnetic stirrer. […] The loss of oxygen was monitored in a 2.1 ml system at 25° C. containing 1 mg mitochondria, 0.5 mM EDTA, 2.0 mM Hepes, 220 mM D-mannitol, 70 mM sucrose, 2.5 mM KPi, 2.6 mM MgCl2, and 0.5 mg/ml bovine albumin, and, where indicated, 7.8 mM succinate (respiratory substrate), and 0.24 mM ADP (ATP synthesis substrate). […]
# AS-30D hepatoma cells = assay: Killing of AS-30D hepatoma cells (trypan blue); format: cell-based, rat; details: 5 mM, 12 h
# Method: AS-30D hepatoma cells grown in the peritoneal cavity of Sprague Dawley female rats (see Materials) were adapted to grow in tissue culture in Dulbecco's modified Eagle's medium containing 10% fetal bovine serum. Cells were maintained at 37° C. in a humidified atmosphere containing 5% CO2, and counted in a Neubauer chamber after trypan blue dye addition (cell/dye volume=1/1) by visualization under a Nikon inverted microscope.
# The studies described above using the VX2 tumor model for liver cancer predict that 2DOG and 3BrPA may have the capacity to kill hepatoma cells expressing the high glycolytic/high hexokinase phenotype. […] Cell killing was assessed in these experiments by counting those cells in which trypan blue had entered.
# [3] = test system: liver implanted VX2 tumors; assay: Systemic delivery via marginal ear vein, animals with liver implanted VX2 tumors; format: in vivo, rabbit; details: 25 ml, 0.5 mM via marginal ear vein
# Excerpt: Finally, it was important to examine the effect of 3-BrPA when delivered systemically (i.e., via the general circulation) on both animal toxicity and its capacity to damage liver implanted tumors.
# VX2 tumor = assay: PET/CT imaging and histopathology after 1-hour intraarterial infusion; format: in vivo, rabbit
# Method: To further confirm the tumor destruction using 3-bromopyruvate, Positron Emission Tomography (PET)/CT imaging was conducted in rabbits before and after a single 1-hour intraarterial (infusion) therapy with 3-bromopyruvate. […] Since 3-bromopyruvate acts extremely quickly, PET/CT images were obtained within 2 hours of therapy to examine the process of making a decision regarding immediate re-treatment. After the PET/CT images were obtained, the 2 rabbits were sacrificed, their liver explanted and submitted for histopathologic analysis. Various staining methods that the tumor was completely (100%) dead and that the mechanism of cell death was apoptotic, thus confirming the use of PET imaging in assessing tumor response.
structure (smiles),measurement,setting,value
O=C(O)C(=O)CBr [3-bromopyruvate],concentration for complete inhibition of hexokinase activity,[1],5 mM
same,inhibition of mitochondrial respiration,[2],completely inhibits
same,cell killing,AS-30D hepatoma cells,all cells
same,animal behavior,[3],normal behavior
same,effect on liver implanted VX2 tumors,[3],no killing effect
same,histological examination of 9 major tissues,[3]; 4 days,no obvious damage
same,tumor activity on post-treatment PET/CT scans,VX2 tumor; 2 hours after single 1-hour intraarterial infusion,complete disappearance of tumor activity
same,tumor death by histopathology,VX2 tumor; after single 1-hour intraarterial infusion,100%
same,mechanism of cell death,VX2 tumor; histopathologic staining,apoptotic
